Activity calls are given as the source filed them.
How the values were obtained:
[1] = target: Voltage-dependent T-type calcium channel subunit alpha-1H (Homo sapiens, UniProt O95180); type: functional;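 further: channel activity triggered by adding a high calcium stimulation buffer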
[2] = target: T1, Aspartyl aminopeptidase (Plasmodium falciparum 3D7, UniProt Q8I2J3)
T1 sequence (Q8I2J3 whole entry): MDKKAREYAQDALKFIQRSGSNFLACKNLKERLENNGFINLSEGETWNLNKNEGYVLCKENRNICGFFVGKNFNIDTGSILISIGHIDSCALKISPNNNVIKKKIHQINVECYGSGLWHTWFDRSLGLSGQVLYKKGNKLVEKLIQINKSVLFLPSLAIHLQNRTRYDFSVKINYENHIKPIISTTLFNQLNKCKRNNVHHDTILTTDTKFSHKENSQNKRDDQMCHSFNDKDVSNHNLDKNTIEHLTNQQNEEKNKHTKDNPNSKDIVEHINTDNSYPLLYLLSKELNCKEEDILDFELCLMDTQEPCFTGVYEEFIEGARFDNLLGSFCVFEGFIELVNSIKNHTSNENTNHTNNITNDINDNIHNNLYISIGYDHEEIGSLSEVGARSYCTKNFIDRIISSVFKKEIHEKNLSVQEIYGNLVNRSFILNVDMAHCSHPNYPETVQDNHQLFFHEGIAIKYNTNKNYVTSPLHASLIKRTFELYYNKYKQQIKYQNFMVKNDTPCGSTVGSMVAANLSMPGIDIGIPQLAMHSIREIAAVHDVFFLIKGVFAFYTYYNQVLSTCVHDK

[3] = target: Procathepsin L (Homo sapiens, UniProt P07711)
Chain of Procathepsin L (P07711 whole entry): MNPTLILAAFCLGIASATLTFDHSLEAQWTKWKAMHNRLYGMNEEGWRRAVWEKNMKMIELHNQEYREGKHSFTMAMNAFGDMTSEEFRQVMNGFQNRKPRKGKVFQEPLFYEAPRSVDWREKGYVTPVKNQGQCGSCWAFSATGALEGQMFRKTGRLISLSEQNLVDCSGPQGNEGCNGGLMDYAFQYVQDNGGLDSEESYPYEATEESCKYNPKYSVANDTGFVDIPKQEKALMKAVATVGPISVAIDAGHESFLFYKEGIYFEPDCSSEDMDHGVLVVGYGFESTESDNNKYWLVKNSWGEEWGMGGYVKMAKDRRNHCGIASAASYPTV

[4] = target: DNA dC->dU-editing enzyme APOBEC-3A (Homo sapiens, UniProt P31941); assay: A3A deaminase inhibition for selectivity – biochemical, dose response (AID 504722); type: functional
Chain of DNA dC->dU-editing enzyme APOBEC-3A (P31941 whole entry): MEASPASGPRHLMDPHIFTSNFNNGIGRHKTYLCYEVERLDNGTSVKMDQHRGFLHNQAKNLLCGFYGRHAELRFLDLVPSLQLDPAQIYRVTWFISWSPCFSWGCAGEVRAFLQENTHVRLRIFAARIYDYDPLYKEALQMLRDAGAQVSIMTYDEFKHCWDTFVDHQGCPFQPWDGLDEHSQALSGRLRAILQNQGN

[5] = target: T2, Probable nicotinate-nucleotide adenylyltransferase (Staphylococcus aureus (strain N315), UniProt P65502); type: functional, Staphylococcus aureus subsp. aureus N315; settings: read-out: IC50_Mean;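 on IC50 Mean: confirmatory dose-response retesting of NadD inhibitor hits first found in an ultra-high-throughput screen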
T2 sequence (P65502 whole entry): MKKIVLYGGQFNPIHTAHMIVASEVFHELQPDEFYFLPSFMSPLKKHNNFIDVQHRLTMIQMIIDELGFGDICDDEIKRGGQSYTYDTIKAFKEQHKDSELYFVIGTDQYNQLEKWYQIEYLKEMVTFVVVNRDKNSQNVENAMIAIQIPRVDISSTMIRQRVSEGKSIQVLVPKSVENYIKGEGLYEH

[6] = target: DNA dC->dU-editing enzyme APOBEC-3G (Homo sapiens, UniProt Q9HC16); assay: Dose Response confirmation of small molecule APOBEC3G DNA Deaminase Inhibitors via a fluorescence-based single-stranded DNA deaminase assay. [Related pubchem assays (depositor defined):AID493012, AID493028]; type: functional
Chain of DNA dC->dU-editing enzyme APOBEC-3G (Q9HC16 whole entry): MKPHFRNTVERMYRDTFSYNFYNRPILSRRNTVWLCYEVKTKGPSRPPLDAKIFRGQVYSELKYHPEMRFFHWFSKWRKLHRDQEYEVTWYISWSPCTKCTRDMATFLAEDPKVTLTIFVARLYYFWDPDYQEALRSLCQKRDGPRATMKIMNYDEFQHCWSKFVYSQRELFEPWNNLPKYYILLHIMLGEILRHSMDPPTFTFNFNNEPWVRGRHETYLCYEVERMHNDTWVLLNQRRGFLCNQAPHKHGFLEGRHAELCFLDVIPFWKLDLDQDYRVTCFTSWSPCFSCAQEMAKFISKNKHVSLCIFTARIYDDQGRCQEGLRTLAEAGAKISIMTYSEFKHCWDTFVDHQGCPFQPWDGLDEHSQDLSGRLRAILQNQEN

[7] = target: T2, Probable nicotinate-nucleotide adenylyltransferase; type: functional, Staphylococcus aureus subsp. aureus N315
[8] = target: T3, Carboxy-terminal domain RNA polymerase II polypeptide A small phosphatase 1 (Homo sapiens, UniProt Q9GZU7); assay: CTDSP1 inhibitors, concentration-response, biochemical, absorbance readout, ultra-high-throughput screen actives (AID 540297); type: functional
T3 sequence (Q9GZU7 whole entry): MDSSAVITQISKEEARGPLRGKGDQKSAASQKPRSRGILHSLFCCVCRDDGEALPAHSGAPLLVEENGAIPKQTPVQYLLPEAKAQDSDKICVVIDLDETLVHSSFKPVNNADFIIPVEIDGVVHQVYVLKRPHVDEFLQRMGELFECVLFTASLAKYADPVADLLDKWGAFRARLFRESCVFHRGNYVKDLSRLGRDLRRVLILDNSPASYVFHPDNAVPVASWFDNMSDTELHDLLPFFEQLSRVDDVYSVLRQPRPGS

[9] = target: Large T antigen (Simian virus 40, UniProt P03070); type: functional, Betapolyomavirus macacae;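 further: Confirmatory-stage PubChem screen for compounds that inhibit SV40 T antigen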
Chain of Large T antigen (P03070 whole entry): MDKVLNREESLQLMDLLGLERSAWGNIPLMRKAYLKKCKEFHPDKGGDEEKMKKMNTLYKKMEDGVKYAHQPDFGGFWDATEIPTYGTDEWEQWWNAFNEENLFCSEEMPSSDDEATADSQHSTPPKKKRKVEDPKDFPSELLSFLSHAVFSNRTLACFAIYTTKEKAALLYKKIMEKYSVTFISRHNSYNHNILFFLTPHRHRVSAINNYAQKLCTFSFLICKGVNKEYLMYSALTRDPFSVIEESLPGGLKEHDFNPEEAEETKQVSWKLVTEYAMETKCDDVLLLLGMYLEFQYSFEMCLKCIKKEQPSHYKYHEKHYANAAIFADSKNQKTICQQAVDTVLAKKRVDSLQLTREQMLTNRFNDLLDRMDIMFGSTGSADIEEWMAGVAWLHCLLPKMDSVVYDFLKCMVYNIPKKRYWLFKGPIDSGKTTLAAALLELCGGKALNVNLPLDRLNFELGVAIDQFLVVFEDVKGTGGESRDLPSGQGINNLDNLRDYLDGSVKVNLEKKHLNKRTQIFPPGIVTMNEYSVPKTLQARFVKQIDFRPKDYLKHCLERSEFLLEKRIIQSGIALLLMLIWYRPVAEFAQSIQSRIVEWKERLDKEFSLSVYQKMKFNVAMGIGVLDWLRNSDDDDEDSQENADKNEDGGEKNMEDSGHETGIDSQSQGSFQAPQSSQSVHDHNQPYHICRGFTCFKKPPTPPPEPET

[10] = NIH3T3 cell viability loss – ATP luminescence, mouse fibroblasts, counter-screen, dose response (AID 2010); type: functional, cell-based;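 further: cells exposed to compound for about 90 hours before reading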
[11] = Trypanosoma cruzi growth suppression in host cells – NIH3T3 host cells, beta-gal luminescence, confirmation (AID 2044); type: functional, cell-based;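 further: intracellular parasites grown in NIH/3T3 mouse fibroblasts as host cells; luminescent beta-galactosidase reporter signal from transgenic T. cruzi replicating inside host cells; inhibitors lower the luminescence signal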
[12] = system: Streptococcus sp. 'group A'; assay: Streptococcus pyogenes SK(-)GAS viability under kanamycin – luminescence, BacTiterGlo, confirmation, counter-screen for streptokinase expression inhibitor project, dose response (AID 1900); type: functional, organism-based
[13] = system: Streptococcus; assay: GAS UMAA2166 growth inhibition – luminescence, BacTiterGlo, counter-screen for streptokinase expression inhibitor project, dose response (AID 1915); type: functional, organism-based;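 further: potency for reduction of bacterial viability or growth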
[14] = target: T4, Streptokinase A (Streptococcus pyogenes serotype M1, UniProt P10520); assay: viability-normalized secreted streptokinase activity reduction – plasminogen activation absorbance, OD405, dose response (AID 1914); type: functional, Streptococcus pyogenes M1 GAS;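 further: secreted streptokinase activity via plasminogen activation per viability signal from cell pellet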
T4 sequence (P10520 whole entry): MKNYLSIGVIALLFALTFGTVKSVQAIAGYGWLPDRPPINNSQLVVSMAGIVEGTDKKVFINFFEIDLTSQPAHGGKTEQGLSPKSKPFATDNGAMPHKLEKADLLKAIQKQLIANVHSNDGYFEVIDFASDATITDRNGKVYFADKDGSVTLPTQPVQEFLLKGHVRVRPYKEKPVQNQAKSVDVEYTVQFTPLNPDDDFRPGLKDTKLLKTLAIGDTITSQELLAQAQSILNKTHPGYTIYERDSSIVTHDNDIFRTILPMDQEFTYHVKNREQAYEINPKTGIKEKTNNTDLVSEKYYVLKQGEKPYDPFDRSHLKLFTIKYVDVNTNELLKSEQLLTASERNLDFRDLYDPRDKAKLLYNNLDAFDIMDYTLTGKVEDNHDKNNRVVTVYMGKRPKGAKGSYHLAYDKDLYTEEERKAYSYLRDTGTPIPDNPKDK

[15] = HEK-293T cell viability reduction – luminescence, B-cell screen hits, cytotoxicity control for BCR NF-kB inhibitor project, dose response (AID 489021); type: functional, cell-based;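 further: HEK-293T cells carrying an NF-kB luciferase reporter; cells exposed to compound for about 14 hours before viability readout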
[16] = A cytotoxicity screen of small molecule inhibitors of the PhoP region in Salmonella typhi identified in the primary screen. [Related pubchem assays: 1850, 1864, 1985 ]; type: functional
[17] = target: T5, RNA-binding protein pos-1 (Caenorhabditis elegans, UniProt G5EF15); assay: disruptors of C. elegans POS-1 RNA interaction – biochemical, fluorescence polarization, dose response (AID 1964);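 further: purified POS-1 fused to maltose binding protein made in E. coli; potency of compounds blocking POS-1 binding to fluorescent RNA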
T5 sequence (G5EF15 whole entry): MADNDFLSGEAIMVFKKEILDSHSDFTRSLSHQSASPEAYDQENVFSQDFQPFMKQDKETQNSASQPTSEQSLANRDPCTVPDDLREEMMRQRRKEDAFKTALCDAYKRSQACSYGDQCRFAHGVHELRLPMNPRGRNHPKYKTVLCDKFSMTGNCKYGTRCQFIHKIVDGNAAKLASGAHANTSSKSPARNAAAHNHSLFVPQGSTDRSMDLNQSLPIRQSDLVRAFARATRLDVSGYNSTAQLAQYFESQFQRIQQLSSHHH

[18] = target: T6, Zinc finger protein mex-5 (Caenorhabditis elegans, UniProt Q9XUB2); assay: potency of MEX-5 RNA-binding blockers – biochemical, C. elegans, fluorescence polarization, dose response (AID 1960)
T6 sequence (Q9XUB2 whole entry): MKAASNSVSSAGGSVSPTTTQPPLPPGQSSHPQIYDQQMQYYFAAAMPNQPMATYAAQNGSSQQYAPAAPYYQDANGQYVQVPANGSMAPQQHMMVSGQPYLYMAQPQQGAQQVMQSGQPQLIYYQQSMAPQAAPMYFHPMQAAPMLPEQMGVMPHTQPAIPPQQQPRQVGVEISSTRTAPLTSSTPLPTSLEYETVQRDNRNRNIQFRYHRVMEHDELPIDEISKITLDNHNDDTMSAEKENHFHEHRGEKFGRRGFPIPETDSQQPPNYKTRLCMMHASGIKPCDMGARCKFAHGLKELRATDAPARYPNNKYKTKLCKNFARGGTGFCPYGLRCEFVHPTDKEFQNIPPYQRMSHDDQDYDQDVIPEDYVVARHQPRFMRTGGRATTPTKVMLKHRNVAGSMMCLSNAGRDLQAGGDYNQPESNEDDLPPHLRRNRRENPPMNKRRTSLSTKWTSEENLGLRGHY

[19] = target: G-protein coupled receptor 55 (Homo sapiens, UniProt Q9Y2T6); assay: inhibition of LPI-stimulated GPR55 beta-arrestin translocation – imaging, U2OS, beta-arrestin-GFP, LPI agonist, primary screen (AID 2013); type: functional;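 further: antagonist potency measured as reduced agonist-driven arrestin aggregation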
[20] = target: Induced myeloid leukemia cell differentiation protein Mcl-1 (Homo sapiens, UniProt Q07820); type: functional
[21] = target: Cytochrome P450 2D6 (Homo sapiens, UniProt P10635);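 further: CYP2D6 member of a cytochrome P450 panel assay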
[22] = antiviral protection against BTV-induced cell death – arbovirus, BSR cells, confirmation (AID 1250); type: functional;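 further: protection from viral cytopathic effect measured as cell viability by ATP luminescence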
[23] = target: Genome polyprotein (dengue virus type 2, UniProt P29990); assay: flavivirus cap methylation enzyme inhibition – biochemical, confirmation dose response, primary screen (AID 588689); type: functional
Chain of Genome polyprotein (P29990 2492-3391 limits assumed): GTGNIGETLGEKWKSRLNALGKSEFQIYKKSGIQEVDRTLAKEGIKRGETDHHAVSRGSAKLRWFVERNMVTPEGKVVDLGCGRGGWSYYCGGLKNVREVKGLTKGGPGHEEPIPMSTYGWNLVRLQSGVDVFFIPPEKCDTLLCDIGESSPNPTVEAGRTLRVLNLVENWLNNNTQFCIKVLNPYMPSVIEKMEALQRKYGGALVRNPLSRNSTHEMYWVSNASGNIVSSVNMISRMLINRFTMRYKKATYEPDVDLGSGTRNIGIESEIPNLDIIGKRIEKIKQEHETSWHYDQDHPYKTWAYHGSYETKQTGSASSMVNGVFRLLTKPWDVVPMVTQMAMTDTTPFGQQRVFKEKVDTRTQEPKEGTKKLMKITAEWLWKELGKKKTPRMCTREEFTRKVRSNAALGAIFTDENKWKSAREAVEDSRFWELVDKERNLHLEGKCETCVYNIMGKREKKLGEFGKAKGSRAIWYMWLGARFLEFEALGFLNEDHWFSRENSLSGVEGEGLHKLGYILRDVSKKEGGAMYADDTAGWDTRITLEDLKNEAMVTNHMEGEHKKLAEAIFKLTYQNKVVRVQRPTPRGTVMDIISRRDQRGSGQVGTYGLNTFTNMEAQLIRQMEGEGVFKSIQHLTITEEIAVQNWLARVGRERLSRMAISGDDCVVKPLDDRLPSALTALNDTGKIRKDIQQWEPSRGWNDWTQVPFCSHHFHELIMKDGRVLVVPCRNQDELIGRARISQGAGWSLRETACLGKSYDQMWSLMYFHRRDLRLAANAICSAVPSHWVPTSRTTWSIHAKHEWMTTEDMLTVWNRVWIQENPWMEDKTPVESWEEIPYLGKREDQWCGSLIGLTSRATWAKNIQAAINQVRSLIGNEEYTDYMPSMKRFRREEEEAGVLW

[24] = target: Prothrombin (Homo sapiens, UniProt P00734); assay: Thrombin 1536 HTS Dose Response Confirmation. [Related pubchem assays: 1046 (Thrombin 1536 HTS; hits were confirmed in this assay)]; type: functional
[25] = system: Vero; assay: viability of Vero cells under compound – cytotoxicity control for flavivirus capping enzyme inhibitors (AID 588742); type: functional; settings: Chlorocebus sabaeus
[26] = target: T7, Coagulation factor XII (Homo sapiens, UniProt P00748); type: functional;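 further: activated factor XIIa alpha cleaving a fluorogenic AMC peptide substrate; inhibitor potency from loss of enzyme activity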
T7 sequence (P00748 whole entry): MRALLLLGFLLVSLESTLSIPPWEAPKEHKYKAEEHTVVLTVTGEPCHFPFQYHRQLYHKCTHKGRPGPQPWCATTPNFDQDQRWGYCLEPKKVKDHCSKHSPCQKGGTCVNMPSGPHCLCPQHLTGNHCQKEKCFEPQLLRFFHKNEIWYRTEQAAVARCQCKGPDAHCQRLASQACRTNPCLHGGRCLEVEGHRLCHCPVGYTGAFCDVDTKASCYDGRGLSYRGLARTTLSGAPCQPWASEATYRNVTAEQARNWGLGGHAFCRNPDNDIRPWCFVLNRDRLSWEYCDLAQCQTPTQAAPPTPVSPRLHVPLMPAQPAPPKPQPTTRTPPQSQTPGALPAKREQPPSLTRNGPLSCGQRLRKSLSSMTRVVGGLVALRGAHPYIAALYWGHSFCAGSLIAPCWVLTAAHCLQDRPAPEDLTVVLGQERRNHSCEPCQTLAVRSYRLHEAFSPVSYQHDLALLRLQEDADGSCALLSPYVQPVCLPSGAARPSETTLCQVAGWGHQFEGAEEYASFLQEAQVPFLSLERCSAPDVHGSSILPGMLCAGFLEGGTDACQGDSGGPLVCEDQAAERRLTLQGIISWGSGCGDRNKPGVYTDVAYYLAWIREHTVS

[27] = target: Neurotensin receptor type 1 (Homo sapiens, UniProt P30989); type: functional;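 further: Image-based confirmatory dose-response assay measuring agonist activity at NTR1; NTR1-expressing U2OS osteosarcoma cells imaged for beta-arrestin GFP spot formation; agonist potency where compounds increase beta-arrestin recruitment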

Chain of Voltage-dependent T-type calcium channel subunit alpha-1H (O95180 whole entry): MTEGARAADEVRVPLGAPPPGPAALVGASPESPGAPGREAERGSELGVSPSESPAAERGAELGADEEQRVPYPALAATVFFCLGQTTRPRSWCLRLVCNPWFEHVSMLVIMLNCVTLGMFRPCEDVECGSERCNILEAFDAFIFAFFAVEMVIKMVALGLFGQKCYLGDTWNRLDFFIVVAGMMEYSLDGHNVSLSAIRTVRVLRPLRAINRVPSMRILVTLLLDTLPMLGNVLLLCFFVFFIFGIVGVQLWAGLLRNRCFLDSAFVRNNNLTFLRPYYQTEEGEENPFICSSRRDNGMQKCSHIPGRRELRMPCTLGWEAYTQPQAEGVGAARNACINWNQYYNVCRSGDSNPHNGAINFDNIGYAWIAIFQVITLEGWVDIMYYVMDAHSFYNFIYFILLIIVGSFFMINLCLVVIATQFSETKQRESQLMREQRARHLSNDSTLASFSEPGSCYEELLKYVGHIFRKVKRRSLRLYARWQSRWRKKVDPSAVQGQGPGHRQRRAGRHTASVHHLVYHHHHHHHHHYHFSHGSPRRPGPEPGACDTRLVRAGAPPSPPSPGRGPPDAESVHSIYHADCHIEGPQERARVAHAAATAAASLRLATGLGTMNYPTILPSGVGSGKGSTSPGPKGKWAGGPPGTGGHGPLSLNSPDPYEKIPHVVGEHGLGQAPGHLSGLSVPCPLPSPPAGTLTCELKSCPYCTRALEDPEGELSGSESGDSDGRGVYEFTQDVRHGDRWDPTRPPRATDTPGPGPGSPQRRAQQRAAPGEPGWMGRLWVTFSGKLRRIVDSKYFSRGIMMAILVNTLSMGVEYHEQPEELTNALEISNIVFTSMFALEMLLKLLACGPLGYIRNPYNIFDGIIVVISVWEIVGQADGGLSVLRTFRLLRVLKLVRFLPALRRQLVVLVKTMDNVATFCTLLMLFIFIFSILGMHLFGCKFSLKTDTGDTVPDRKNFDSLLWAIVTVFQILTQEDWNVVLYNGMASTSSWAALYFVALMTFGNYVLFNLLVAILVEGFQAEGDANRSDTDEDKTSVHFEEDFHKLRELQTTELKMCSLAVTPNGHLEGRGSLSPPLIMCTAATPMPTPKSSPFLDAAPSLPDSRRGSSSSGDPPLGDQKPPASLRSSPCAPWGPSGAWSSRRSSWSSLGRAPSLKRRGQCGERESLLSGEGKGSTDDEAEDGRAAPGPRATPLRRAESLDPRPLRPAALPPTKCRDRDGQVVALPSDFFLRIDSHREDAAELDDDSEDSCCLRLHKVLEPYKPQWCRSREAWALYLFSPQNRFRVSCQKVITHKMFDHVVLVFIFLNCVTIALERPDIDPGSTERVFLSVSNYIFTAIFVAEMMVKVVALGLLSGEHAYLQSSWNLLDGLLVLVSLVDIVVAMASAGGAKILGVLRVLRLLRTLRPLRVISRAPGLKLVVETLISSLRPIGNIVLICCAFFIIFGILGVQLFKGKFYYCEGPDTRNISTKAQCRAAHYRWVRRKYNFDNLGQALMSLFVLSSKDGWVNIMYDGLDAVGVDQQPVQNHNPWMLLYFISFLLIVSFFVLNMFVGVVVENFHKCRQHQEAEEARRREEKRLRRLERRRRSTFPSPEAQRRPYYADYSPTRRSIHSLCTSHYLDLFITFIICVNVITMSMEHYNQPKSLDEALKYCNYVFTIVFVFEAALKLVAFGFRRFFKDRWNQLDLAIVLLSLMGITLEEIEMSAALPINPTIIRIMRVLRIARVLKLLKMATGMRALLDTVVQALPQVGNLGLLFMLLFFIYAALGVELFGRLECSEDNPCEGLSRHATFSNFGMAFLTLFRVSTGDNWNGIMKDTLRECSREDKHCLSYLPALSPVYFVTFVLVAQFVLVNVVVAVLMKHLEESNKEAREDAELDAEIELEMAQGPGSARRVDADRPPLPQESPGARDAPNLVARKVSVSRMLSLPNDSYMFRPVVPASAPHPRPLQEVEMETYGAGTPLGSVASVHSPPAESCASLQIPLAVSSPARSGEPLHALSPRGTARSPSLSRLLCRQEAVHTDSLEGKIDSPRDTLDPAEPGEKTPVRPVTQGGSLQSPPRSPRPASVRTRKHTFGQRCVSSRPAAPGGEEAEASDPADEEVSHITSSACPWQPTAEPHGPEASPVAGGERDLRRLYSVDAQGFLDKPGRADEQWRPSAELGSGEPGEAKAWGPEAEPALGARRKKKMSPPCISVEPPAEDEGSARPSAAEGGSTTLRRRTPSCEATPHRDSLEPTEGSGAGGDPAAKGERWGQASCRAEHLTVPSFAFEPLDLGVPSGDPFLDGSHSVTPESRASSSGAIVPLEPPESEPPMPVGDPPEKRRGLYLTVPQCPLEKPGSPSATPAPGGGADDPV

## O=C(CSc1nnc(-c2cccs2)n1Cc1ccccc1)NCc1ccc2c(c1)OCO2
[1]
  EC50: 10.2 µM (active)

## O=C(NCc1ccccc1)C(c1ccccc1)N(Cc1ccc2c(c1)OCO2)C(=O)Cc1cccs1 (stereo not drawn)
[1]
  EC50: 5.37 µM (active)

## O=C(NC1(C(F)(F)F)Oc2ccccc2O1)N1CCC2(CC1)OCCO2
[2]
  IC50: 2.78 µM (active)
[3]
  IC50: > 59.6 µM (not active)

## CCN(CC)C(=O)CSc1ncnc2c(-c3cccs3)nsc12
[4]
  IC50: 61.2 µM (active)
[5]
  IC50: 37.6 µM (active)
[6]
  IC50: 17.8 µM (active)
[7]
  IC50: 12.9 µM (active)
[8]
  IC50: 3.16 µM (active)

## C=CCn1c(S)nnc1CSc1nc2ccccc2s1
[4]
  IC50: > 100 µM (inactive)
[6]
  IC50: 3.29 µM (active)

## O=c1c2c([N+](=O)[O-])cc([N+](=O)[O-])cc2sn1Cc1ccccc1
[9]
  IC50: 13.1 µM (active)
[10]
  EC50: 16.9 µM (active)
[2]
  IC50: > 0.101 µM (active)
[11]
  EC50: 1.77 µM (active)
[12]
  EC50: 4.35 µM (active)
[6]
  IC50: 4.16 µM (active)
[13]
  EC50: 16.1 µM (active)
[14]
  EC50: > 150 µM (not active)
[3]
  IC50: > 59.6 µM (not active)

## COc1cc(OC)c(/C=N/NC(N)=S)cc1Br
[15]
  IC50: > 80 µM (inactive)

## CCN(CC)c1ccc(/C=N/N=C(c2ccccc2)c2ccccc2)c(O)c1
[15]
  IC50: > 80 µM (inactive)

## Cc1ccc(C)c2nc(O)c(CN(Cc3cccnc3)C(S)=NCc3ccco3)cc12
[16]
  EC50: > 50 µM (active)

## COc1ccc(N2C(=O)NC(=O)/C(=C\c3c[nH]c4ccc(Br)cc34)C2=O)c(OC)c1
[17]
  EC50: > 300 µM (inconclusive)
[18]
  EC50: > 300 µM (inconclusive)
[19]
  IC50: 1.66 µM (active)

## CC(C)Oc1ccc(C(=O)Nc2ccc(N(C)C)cc2)cc1
[9]
  IC50: 25.3 µM (active)
[20]
  IC50: 4.48 µM (not active)
[15]
  IC50: > 80 µM (inactive)

## Sc1nnc(COc2ccccc2)n1/N=C/c1cccnc1
[4]
  IC50: > 100 µM (inactive)
[6]
  IC50: 3.71 µM (active)

## COc1ccc(NC(=O)Cn2c(=O)oc3cc(S(=O)(=O)N4CCCC4)ccc32)c(OC)c1
[16]
  EC50: > 50 µM (active)

## NC(=O)/C(=N\OC(=O)c1ccco1)c1nc(-c2ccc(Br)cc2)cs1
[21]
  AC50: 25.1 µM (inconclusive)
[22]
  IC50: 34.3 µM (active)
[23]
  IC50: 40.8 µM (active)
[5]
  IC50: 29.2 µM (active)
[24]
  IC50: 0.925 µM (active)
[7]
  IC50: 7.32 µM (active)
[25]
  CC50: > 40 µM (active)
[26]
  IC50: 21 µM (active)

## CCOc1ccc(Br)cc1S(=O)(=O)Nc1ccccc1N1CCOCC1
[27]
  EC50: > 40 µM (inactive)

## COc1ccc(S(=O)(=O)CC(=O)c2cc3cc(Br)ccc3oc2=O)cc1
[23]
  IC50: > 100 µM (active)
[19]
  IC50: 2.11 µM (active)
